Here are results for 19 compounds from patent US9661854B2, “Molecules having pesticidal utility, and intermediates, compositions, and processes, related thereto” (Dow AgroSciences LLC, priority 2015, dated 2017).

For assay [1], the system named is Beet Armyworm (Spodoptera exigua, LAPHEG). The assay is described as follows: Bioassay on Beet Armyworm (BAW), 128-well diet tray assay. The class given is in vivo. To be noted: 168 h, 50 μg/cm^2 on artificial diet, second instar larvae, 25° C., five to seven days, average of eight wells, read-out: BAW % Control (or Mortality) rating. On the procedure:
(§1) Example A: Bioassays on Beet Armyworm (Spodoptera exigua, LAPHEG) (“BAW”) and Cabbage Looper (Trichoplusia ni, TRIPNI) (“CL”)
(§2) Certain molecules disclosed in this document were tested against BAW and CL using procedures described in the following examples. In the reporting of the results, the “BAW & CL Rating Table” was used (See Table Section).
Bioassays on BAW were conducted using a 128-well diet tray assay. One to five second instar BAW larvae were placed in each well (3 mL) of the diet tray that had been previously filled with 1 mL of artificial diet to which 50 μg/cm^2 of the test molecule (dissolved in 50 μL of 90:10 acetone-water mixture) had been applied (to each of eight wells) and then allowed to dry. Trays were covered with a clear self-adhesive cover, vented to allow gas exchange, and held at 25° C., 14:10 light-dark for five to seven days. Percent mortality was recorded for the larvae in each well; activity in the eight wells was then averaged. The results are indicated in the table entitled “Table ABC: Biological Results” (See Table Section).

Assay [2] relates to Cabbage Looper (Trichoplusia ni, TRIPNI). Kind of assay: Bioassay on Cabbage Looper (CL), 128-well diet tray assay. To be noted: 168 h, 50 μg/cm^2 on artificial diet, second instar larvae, 25° C., five to seven days, average of eight wells, read-out: CL % Control (or Mortality) rating. Format: in vivo. On the procedure:
as §1, §2
Bioassays on CL were conducted using a 128-well diet tray assay. One to five second instar CL larvae were placed in each well (3 mL) of the diet tray that had been previously filled with 1 mL of artificial diet to which 50 μg/cm^2 of the test molecule (dissolved in 50 μL of 90:10 acetone-water mixture) had been applied (to each of eight wells) and then allowed to dry. Trays were covered with a clear self-adhesive cover, vented to allow gas exchange, and held at 25° C., 14:10 light-dark for five to seven days. Percent mortality was recorded for the larvae in each well; activity in the eight wells was then averaged. The results are indicated in the table entitled “Table ABC: Biological Results” (See Table Section).

In the case of `CCC(C)Oc1ccc(C)cc1N1C(=O)CS/C1=N\C(=O)Nc1ccc(CCc2ncn(-c3ccc(OC(F)(F)F)cc3)n2)cc1F` (centres unmarked) [F24, (Z)-1-(3-(2-(sec-Butoxy)-5-methylphenyl)-4-oxothiazolidin-2-ylidene)-3-(2-fluoro-4-(2-(1-(4-(trifluoromethoxy)phenyl)-1H-1,2,4-triazol-3-yl)ethyl)phenyl)urea], the mortality at 50 µg/cm2 in assay [1] and in assay [2] was 50 to 100% in each case.
As to `Cc1ccc(C(C)C)c(N2C(=O)CS/C2=N\C(=O)Nc2ccc(CCc3ncn(-c4ccc(OC(F)(F)F)cc4)n3)cc2C(F)(F)F)c1` [F25, (Z)-1-(3-(2-Isopropyl-5-methylphenyl)-4-oxothiazolidin-2-ylidene)-3-(4-(2-(1-(4-(trifluoromethoxy)phenyl)-1H-1,2,4-triazol-3-yl)ethyl)-2-(trifluoromethyl)phenyl)urea], the mortality at 50 µg/cm2 in assay [1] and in assay [2] was 50 to 100% each time.
On to `CC(C)c1ccc(C(F)(F)F)cc1N1C(=O)CS/C1=N\C(=O)Nc1ccc(CCc2ncn(-c3ccc(OC(F)(F)F)cc3)n2)cc1F` [F27, (Z)-1-(2-Fluoro-4-(2-(1-(4-(trifluoromethoxy)phenyl)-1H-1,2,4-triazol-3-yl)ethyl)phenyl)-3-(3-(2-isopropyl-5-(trifluoromethyl)phenyl)-4-oxothiazolidin-2-ylidene)urea], for which the mortality at 50 µg/cm2 in assay [1] and in assay [2] was 50 to 100% throughout.
Turning to `Cc1ccc(C2CC2(F)F)c(N2C(=O)CS/C2=N\C(=O)Nc2ccc(CCc3ncn(-c4ccc(OC(F)(F)F)cc4)n3)cc2)c1` (centres unmarked) [F28, (Z)-1-(3-(2-(2,2-Difluorocyclopropyl)-5-methylphenyl)-4-oxothiazolidin-2-ylidene)-3-(4-(2-(1-(4-(trifluoromethoxy)phenyl)-1H-1,2,4-triazol-3-yl)ethyl)phenyl)urea], the mortality at 50 µg/cm2 in assay [1] and in assay [2] was 50 to 100% in each case.
For the compound `CC(C)c1ccc(C(F)(F)F)cc1N1C(=O)CS/C1=N\C(=O)Nc1ccc(CCc2ncn(-c3ccc(OC(F)(F)F)cc3)n2)cc1` [F29, (Z)-1-(3-(2-Isopropyl-5-(trifluoromethyl)phenyl)-4-oxothiazolidin-2-ylidene)-3-(4-(2-(1-(4-(trifluoromethoxy)phenyl)-1H-1,2,4-triazol-3-yl)ethyl)phenyl)urea], the mortality at 50 µg/cm2 in assay [1] and in assay [2] was 50 to 100% in each case.
For `Cc1ccc(C2CC2(F)F)c(N2C(=O)CS/C2=N\C(=O)Nc2ccc(CCc3ncn(-c4ccc(OC(F)(F)F)cc4)n3)cc2F)c1` (centres unmarked) [F30, (Z)-1-(3-(2-(2,2-Difluorocyclopropyl)-5-methylphenyl)-4-oxothiazolidin-2-ylidene)-3-(2-fluoro-4-(2-(1-(4-(trifluoromethoxy)phenyl)-1H-1,2,4-triazol-3-yl)ethyl)phenyl)urea], the mortality at 50 µg/cm2 in assay [1] and in assay [2] was 50 to 100% in each case.
As to `COC(C)c1ccc(C)cc1N1C(=O)CS/C1=N\C(=O)Nc1ccc(CCc2ncn(-c3ccc(OC(F)(F)F)cc3)n2)cc1` (centres unmarked) [F31, (Z)-1-(3-(2-(1-Methoxyethyl)-5-methylphenyl)-4-oxothiazolidin-2-ylidene)-3-(4-(2-(1-(4-(trifluoromethoxy)phenyl)-1H-1,2,4-triazol-3-yl)ethyl)phenyl)urea], the mortality at 50 µg/cm2 in assay [1] and in assay [2] was 50 to 100% throughout.
In the case of `Cc1ccc(C(C)C)c(N2C(=O)CS/C2=N\C(=O)Nc2ccc(CCc3ncn(-c4ccc(OC(F)(F)F)cc4)n3)cn2)c1` [F32, (Z)-1-(3-(2-Isopropyl-5-methylphenyl)-4-oxothiazolidin-2-ylidene)-3-(5-(2-(1-(4-(trifluoromethoxy)phenyl)-1H-1,2,4-triazol-3-yl)ethyl)pyridin-2-yl)urea], the mortality at 50 µg/cm2 in assay [1] and in assay [2] was 50 to 100% each time.
Consider `Cc1ccc(C(C)C)c(N2C(=O)CS/C2=N\C(=O)Nc2ccc(CCc3ncn(-c4ccc(OC(F)(F)F)cn4)n3)cn2)c1` [F33, (Z)-1-(3-(2-Isopropyl-5-methylphenyl)-4-oxothiazolidin-2-ylidene)-3-(5-(2-(1-(5-(trifluoromethoxy)pyridin-2-yl)-1H-1,2,4-triazol-3-yl)ethyl)pyridin-2-yl)urea], for which the mortality at 50 µg/cm2 in assay [1] and in assay [2] was 50 to 100% in each case.
Turning to `Cc1ccc(C(C)C)c(N2C(=O)CS/C2=N\C(=O)Nc2ccc(CCc3ncn(-c4ncc(C(F)(F)F)cc4Cl)n3)cc2)c1` [F34, (Z)-1-(4-(2-(1-(3-Chloro-5-(trifluoromethyl)pyridin-2-yl)-1H-1,2,4-triazol-3-yl)ethyl)phenyl)-3-(3-(2-isopropyl-5-methylphenyl)-4-oxothiazolidin-2-ylidene)urea], the figures for the mortality at 50 µg/cm2 in assay [1] and in assay [2] were 0% and 50 to 100%, respectively.
Turning to `O=C(/N=C1\SCC(=O)N1C1CCCCC1)Nc1ccc(CCc2ncn(-c3ccc(OC(F)(F)F)cc3)n2)cc1` [F35, (Z)-1-(3-Cyclohexyl-4-oxothiazolidin-2-ylidene)-3-(4-(2-(1-(4-(trifluoromethoxy)phenyl)-1H-1,2,4-triazol-3-yl)ethyl)phenyl)urea], the mortality at 50 µg/cm2 in assay [1] and in assay [2] was 50 to 100% in each case.
As to `Cc1ccc(C(C)C)c(-n2ccs/c2=N\C(=O)Nc2ccc(CCc3ncn(-c4ccc(OC(F)(F)F)cc4)n3)cc2)c1` [F36, (Z)-1-(3-(2-Isopropyl-5-methylphenyl)thiazol-2(3H)-ylidene)-3-(4-(2-(1-(4-(trifluoromethoxy)phenyl)-1H-1,2,4-triazol-3-yl)ethyl)phenyl)urea], the mortality at 50 µg/cm2 in assay [1] and in assay [2] was 50 to 100% each time.
Turning to `Cc1ccc(C(C)C)c(-n2ccs/c2=N\C(=O)Nc2ccc(CCc3ncn(-c4ccc(OC(F)(F)F)cc4)n3)cc2F)c1` [F37, (Z)-1-(2-Fluoro-4-(2-(1-(4-(trifluoromethoxy)phenyl)-1H-1,2,4-triazol-3-yl)ethyl)phenyl)-3-(3-(2-isopropyl-5-methylphenyl)thiazol-2(3H)-ylidene)urea], the mortality at 50 µg/cm2 in assay [1] and in assay [2] was 50 to 100% throughout.
As for `Cc1ccc(C(C)C)c(N2C(=O)CS/C2=N\C(=O)Nc2ccc(/C=C/c3ncn(-c4ccc(OC(F)(F)F)cc4)n3)c(C)c2)c1` [F39, 1-((Z)-3-(2-Isopropyl-5-methylphenyl)-4-oxothiazolidin-2-ylidene)-3-(3-methyl-4-((E)-2-(1-(4-(trifluoromethoxy)phenyl)-1H-1,2,4-triazol-3-yl)vinyl)phenyl)urea], the mortality at 50 µg/cm2 in assay [1] and in assay [2] was 50 to 100% each time.
On to `COc1cc(NC(=O)/N=C2\SCC(=O)N2c2cc(C)ccc2C(C)C)ccc1/C=C/c1ncn(-c2ccc(OC(F)(F)F)cc2)n1` [F40, 1-((Z)-3-(2-Isopropyl-5-methylphenyl)-4-oxothiazolidin-2-ylidene)-3-(3-methoxy-4-((E)-2-(1-(4-(trifluoromethoxy)phenyl)-1H-1,2,4-triazol-3-yl)vinyl)phenyl)urea], for which the mortality at 50 µg/cm2 in assay [1] and in assay [2] was 50 to 100% throughout.
Regarding `Cc1ccc(F)c(N2C(=O)CS/C2=N\C(=O)Nc2ccc(/C=C/c3ncn(-c4ccc(OC(F)(F)F)cc4)n3)cc2)c1` [F41, 1-((Z)-3-(2-Fluoro-5-methylphenyl)-4-oxothiazolidin-2-ylidene)-3-(4-((E)-2-(1-(4-(trifluoromethoxy)phenyl)-1H-1,2,4-triazol-3-yl)vinyl)phenyl)urea], the mortality at 50 µg/cm2 in assay [1] and in assay [2] was 50 to 100% each time.
Turning to `COc1ccc(C)cc1N1C(=O)CS/C1=N\C(=O)Nc1ccc(/C=C/c2ncn(-c3ccc(OC(F)(F)F)cc3)n2)cc1` [F42, 1-((Z)-3-(2-Methoxy-5-methylphenyl)-4-oxothiazolidin-2-ylidene)-3-(4-((E)-2-(1-(4-(trifluoromethoxy)phenyl)-1H-1,2,4-triazol-3-yl)vinyl)phenyl)urea], the mortality at 50 µg/cm2 in assay [1] and in assay [2] was 50 to 100% throughout.
As to `Cc1ccc(C(F)(F)F)c(N2C(=O)CS/C2=N\C(=O)Nc2ccc(/C=C/c3ncn(-c4ccc(OC(F)(F)F)cc4)n3)cc2)c1` [F43, 1-((Z)-3-(5-Methyl-2-(trifluoromethyl)phenyl)-4-oxothiazolidin-2-ylidene)-3-(4-((E)-2-(1-(4-(trifluoromethoxy)phenyl)-1H-1,2,4-triazol-3-yl)vinyl)phenyl)urea], the mortality at 50 µg/cm2 in assay [1] and in assay [2] was 50 to 100% in each case.
As for `Cc1ccc(Cl)c(N2C(=O)CS/C2=N\C(=O)Nc2ccc(/C=C/c3ncn(-c4ccc(OC(F)(F)F)cc4)n3)cc2)c1` [F44, 1-((Z)-3-(2-Chloro-5-methylphenyl)-4-oxothiazolidin-2-ylidene)-3-(4-((E)-2-(1-(4-(trifluoromethoxy)phenyl)-1H-1,2,4-triazol-3-yl)vinyl)phenyl)urea], the mortality at 50 µg/cm2 in assay [1] and in assay [2] was 50 to 100% in each case.

What is called mortality is the share of the test organisms that died.
